A short description of data set [1]: water solubility of the sodium salt. The data set is classed as physicochemical.
A further data set deals with Sprague Dawley rats. The data set can be described thus: Intracisternal Toxicity in Rats. The following applies: N-methylglucamine (meglumine) salt, 2 day observation, Litchfield and Wilcoxon. The class given is in vivo. The method, then:
(§1) Toxicity evaluations by three different techniques were carried out on solutions of the N-methylglucamine salts of 3-acetamido-5-(4,4-bishydroxymethyl-2-oxazolinyl)-2,4,6-triiodobenzoic acid and 3-acetamido-5-(4-methyl-4-hydroxymethyl-2-oxazolinyl)-2,4,6-triiodobenzoicacid. The techniques utilized are outlined below.
III. Intracisternal Toxicity in Rats
Sprague Dawley (Carworth) rats were used. The method used was a variation of the procedure outlined by Melartin et al. (Invest. Rad. 5:13-21, 1970). After dosing, the animals were housed individually, and observed for immediate reactions and periodically for a 2 day observation period. The LD50 values were calculated according to the method of Litchfield and Wilcoxon, (J. of Pharmac. and Exptl. Therap. 96:[…], 1949).

The subject of data set [2] is Swiss Albino mice. In words: Acute Intravenous Toxicity Studies in Mice. The class given is in vivo. The following applies: N-methylglucamine (meglumine) salt, i.v. lateral tail vein, 1 ml./min, 7 day observation, Litchfield and Wilcoxon. The method, then: as §1
I. Acute Intravenous Toxicity Studies in Mice
Swiss Albino mice (Charles River) were dosed in the lateral tail vein with solutions of the iodinated compounds containing 50.4% iodine in the case of 3-acetamido-5-(4,4-bishydroxymethyl-2-oxazolinyl)-2,4,6-triiodobenzoic acid and 28.2% iodine in the case of 3-acetamido-5-(4-methyl-4-hydroxymethyl-2-oxazolinyl)-2,4,6-triiodobenzoicacid, injected at the rate of 1 ml./min. […] The LD50 values were calculated by the method of Litchfield and Wilcoxon (J. of Pharmac. and Exptl. Therap. 96: 99-113, 1949).

Data set [3] deals with Swiss Albino mice. In words: Intracerebral Toxicity in Mice. The class given is in vivo. The following applies: N-methylglucamine (meglumine) salt, 7 day observation, Litchfield and Wilcoxon. The method, then: as §1
II. Intracerebral Toxicity in Mice
Swiss Albino mice (Charles River) were used. Fixed volumes of solutions of various concentrations of the iodinated compounds were injected intracerebrally via a 27 gauge needle, (1/4 inch length) according to the method of Haley, et al. (Br. J. of Pharmac. 12:12-15, 1957). The animals were observed immediately after injections and daily throughout a 7 day observation period. The LD50 values were calculated by the method of Litchfield and Wilcoxon (J. of Pharmac. and Exptl. Therap. 96:99-113, (1949)).

The mark [4] stands for this setting: read-out: water solubility of the sodium salt.

Like-named read-outs stand apart in the source and are kept apart here.

For orientation: solubility means the concentration that dissolves in the medium under given conditions. For the compound `Nc1c(I)c(C(=O)O)c(I)c(C(=O)NC(CO)(CO)CO)c1I` [Example 3, 5-Amino-N-[tris(hydroxymethyl)methyl]-2,4,6-triiodoisophthalamic Acid], the solubility in data set [1] (setting [4]) was approximately 800 mg/mL.

Consider `CC(=O)Nc1c(I)c(C(=O)O)c(I)c(C2=NC(CO)(CO)CO2)c1I` [Example 4, 3-Acetamido-5-(4,4-bis(hydroxymethyl)-2-oxazolinyl)-2,4,6-triiodobenzoic Acid], for which the “LD50 of Meglumine Salt, Intracisternal (Rats)” value in the data set on Sprague Dawley rats was 55 mg. contained iodine/kg. anima. The “LD50 of Meglumine Salt, I.V. (Mice)” value in the data set on Swiss Albino mice [2] is 5,522 mg. contained iodine/kg. anima. For the same compound, the “LD50 of Meglumine Salt, Intracerebral (Mice)” value in the data set on Swiss Albino mice [3] is recorded as 485 mg. contained iodine/kg. anima. Also, in data set [1] (setting [4]), the solubility was found to be 958 mg/mL.

As for `CC(CO)(CO)NC(=O)c1c(I)c(N)c(I)c(C(=O)O)c1I` [Example 6, 5-Amino-N-[2-(1,3-dihydroxy-2-methyl)propyl]-2,4,6-triiodoisophthalamic Acid], the solubility in data set [1] (setting [4]) was approximately 830 mg/mL.

Turning to `CC(=O)Nc1c(I)c(C(=O)O)c(I)c(C2=NC(C)(CO)CO2)c1I` (stereo not shown) [Example 8, 3-Acetamido-5-(4-methyl-4-hydroxymethyl-2-oxazolinyl)-2,4,6-triiodobenzoic Acid], the “LD50 of Meglumine Salt, Intracisternal (Rats)” value in the data set on Sprague Dawley rats was 28 mg. contained iodine/kg. anima. In addition, the “LD50 of Meglumine Salt, I.V. (Mice)” value with Swiss Albino mice [2] is 5,500 mg. contained iodine/kg. anima. Moreover, the “LD50 of Meglumine Salt, Intracerebral (Mice)” value in the data set with Swiss Albino mice [3] is 280 mg. contained iodine/kg. anima. Also, the solubility in data set [1] (w/v not given, read-out: solubility of the sodium salt) is 738 mg/mL.

For the origin of these results see patent publication US4066743A, “X-ray contrast agents” (Mallinckrodt, Inc., priority 1976, dated 1978).
